{"source": "paper PMC6886798", "about": "“Expression of myeloid Src-family kinases is associated with poor prognosis in AML and influences Flt3-ITD kinase inhibitor acquired resistance” (PLoS ONE, 2019)", "test_in_all_cases": "KINOMEscan", "type_in_all_cases": "binding", "conditions_in_all_cases": "1.0 µM", "key": {"[1]": {"biological_target": "T1, AAK1 (Homo sapiens, UniProt Q2M2I8)", "T1 construct": "purchased Eurofins/DiscoverX KINOMEscan scanMAX", "procedure": "(§1) Kinase retention to the immobilized ligand is then measured using quantitative real-time PCR for each kinase-specific DNA barcode."}, "[2]": {"biological_target": "T2, ABL1(F317L)-phosphorylated (Homo sapiens, UniProt P00519, F317L)", "T2 construct": "purchased Eurofins/DiscoverX KINOMEscan scanMAX", "procedure": "as §1"}, "[3]": {"biological_target": "T3, ABL1(T315I)-nonphosphorylated (Homo sapiens, UniProt P00519, T315I)", "T3 construct": "purchased Eurofins/DiscoverX KINOMEscan scanMAX", "procedure": "as §1"}, "[4]": {"biological_target": "T4, ACVR1 (Homo sapiens, UniProt Q04771)", "T4 construct": "purchased Eurofins/DiscoverX KINOMEscan scanMAX", "procedure": "as §1"}, "[5]": {"biological_target": "T5, AURKB (Homo sapiens, UniProt Q96GD4)", "T5 construct": "purchased Eurofins/DiscoverX KINOMEscan scanMAX", "procedure": "as §1"}, "[6]": {"biological_target": "T6, AURKC (Homo sapiens, UniProt Q9UQB9)", "T6 construct": "purchased Eurofins/DiscoverX KINOMEscan scanMAX", "procedure": "as §1"}, "[7]": {"biological_target": "T7, BRK (Homo sapiens, UniProt Q13882)", "T7 construct": "purchased Eurofins/DiscoverX KINOMEscan scanMAX", "procedure": "as §1"}, "[8]": {"biological_target": "T8, BUB1 (Homo sapiens, UniProt O43683)", "T8 construct": "purchased Eurofins/DiscoverX KINOMEscan scanMAX", "procedure": "as §1"}, "[9]": {"biological_target": "T9, CAMK4 (Homo sapiens, UniProt Q16566)", "T9 construct": "purchased Eurofins/DiscoverX KINOMEscan scanMAX", "procedure": "as §1"}, "[10]": {"biological_target": "T10, CDKL5 (Homo sapiens, UniProt O76039)", "T10 construct": "purchased Eurofins/DiscoverX KINOMEscan scanMAX", "procedure": "as §1"}, "[11]": {"biological_target": "T11, CHEK2 (Homo sapiens, UniProt O96017)", "T11 construct": "purchased Eurofins/DiscoverX KINOMEscan scanMAX", "procedure": "as §1"}, "[12]": {"biological_target": "T12, DDR2 (Homo sapiens, UniProt Q16832)", "T12 construct": "purchased Eurofins/DiscoverX KINOMEscan scanMAX", "T12 sequence (Q16832 22-855)": "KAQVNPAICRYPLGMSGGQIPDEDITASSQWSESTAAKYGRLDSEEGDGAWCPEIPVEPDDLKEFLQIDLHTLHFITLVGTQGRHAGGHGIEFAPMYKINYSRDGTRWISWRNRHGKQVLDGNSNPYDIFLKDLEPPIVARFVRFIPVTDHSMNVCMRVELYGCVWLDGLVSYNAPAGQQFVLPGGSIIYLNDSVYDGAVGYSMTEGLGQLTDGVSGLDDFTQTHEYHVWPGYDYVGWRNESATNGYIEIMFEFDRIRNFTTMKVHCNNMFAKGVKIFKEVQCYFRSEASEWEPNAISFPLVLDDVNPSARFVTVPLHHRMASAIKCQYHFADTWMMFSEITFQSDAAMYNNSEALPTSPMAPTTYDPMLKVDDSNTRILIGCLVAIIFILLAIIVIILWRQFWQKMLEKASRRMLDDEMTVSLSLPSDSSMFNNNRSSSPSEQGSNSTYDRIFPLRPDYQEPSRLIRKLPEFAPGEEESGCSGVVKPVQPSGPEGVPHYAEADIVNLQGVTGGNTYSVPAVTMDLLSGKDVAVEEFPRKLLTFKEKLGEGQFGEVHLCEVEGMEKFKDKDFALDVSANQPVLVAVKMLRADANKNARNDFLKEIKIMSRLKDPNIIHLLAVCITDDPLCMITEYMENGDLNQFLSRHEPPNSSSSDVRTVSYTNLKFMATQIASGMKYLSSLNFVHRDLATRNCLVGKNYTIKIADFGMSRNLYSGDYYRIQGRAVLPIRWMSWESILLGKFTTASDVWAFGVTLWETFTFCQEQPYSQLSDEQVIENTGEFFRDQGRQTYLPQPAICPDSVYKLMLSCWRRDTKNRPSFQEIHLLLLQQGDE", "procedure": "as §1"}, "[13]": {"biological_target": "T13, EPHA6 (Homo sapiens, UniProt Q9UF33)", "T13 construct": "purchased Eurofins/DiscoverX KINOMEscan scanMAX", "T13 sequence (Q9UF33 23-1036)": "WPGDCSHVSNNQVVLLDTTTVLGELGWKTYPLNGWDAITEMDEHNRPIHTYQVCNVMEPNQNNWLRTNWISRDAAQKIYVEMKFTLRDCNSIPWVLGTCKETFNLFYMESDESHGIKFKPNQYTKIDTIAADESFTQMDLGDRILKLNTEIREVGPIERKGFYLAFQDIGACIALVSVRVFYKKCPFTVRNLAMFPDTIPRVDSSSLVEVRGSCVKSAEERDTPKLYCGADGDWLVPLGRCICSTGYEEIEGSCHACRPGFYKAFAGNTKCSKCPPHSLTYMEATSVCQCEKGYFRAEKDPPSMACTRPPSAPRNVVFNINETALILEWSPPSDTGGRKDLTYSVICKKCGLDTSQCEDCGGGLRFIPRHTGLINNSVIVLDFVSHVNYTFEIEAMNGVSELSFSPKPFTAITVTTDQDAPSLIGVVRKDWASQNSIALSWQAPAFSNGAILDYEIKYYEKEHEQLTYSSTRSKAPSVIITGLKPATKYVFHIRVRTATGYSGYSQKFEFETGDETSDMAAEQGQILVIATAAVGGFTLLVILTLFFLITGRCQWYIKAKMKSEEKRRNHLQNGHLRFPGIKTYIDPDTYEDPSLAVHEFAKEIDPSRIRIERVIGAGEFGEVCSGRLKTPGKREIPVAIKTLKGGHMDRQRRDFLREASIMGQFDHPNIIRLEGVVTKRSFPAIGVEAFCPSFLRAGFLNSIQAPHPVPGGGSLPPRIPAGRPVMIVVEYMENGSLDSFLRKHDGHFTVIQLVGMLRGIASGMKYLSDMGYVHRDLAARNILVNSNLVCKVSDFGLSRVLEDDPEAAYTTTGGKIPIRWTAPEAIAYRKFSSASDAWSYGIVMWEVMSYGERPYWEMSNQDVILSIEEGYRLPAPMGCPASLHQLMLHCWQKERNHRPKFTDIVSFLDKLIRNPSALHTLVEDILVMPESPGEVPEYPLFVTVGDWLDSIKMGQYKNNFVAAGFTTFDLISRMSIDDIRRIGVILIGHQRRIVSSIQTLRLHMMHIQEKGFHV", "procedure": "as §1"}, "[14]": {"biological_target": "T14, ERN1 (Homo sapiens, UniProt O75460)", "T14 construct": "purchased Eurofins/DiscoverX KINOMEscan scanMAX", "procedure": "as §1"}, "[15]": {"biological_target": "T15, FAK (Homo sapiens, UniProt Q05397)", "T15 construct": "purchased Eurofins/DiscoverX KINOMEscan scanMAX", "procedure": "as §1"}, "[16]": {"biological_target": "T16, ICK (Homo sapiens, UniProt Q9UPZ9)", "T16 construct": "purchased Eurofins/DiscoverX KINOMEscan scanMAX", "procedure": "as §1"}, "[17]": {"biological_target": "T17, IGF1R (Homo sapiens, UniProt P08069)", "T17 construct": "purchased Eurofins/DiscoverX KINOMEscan scanMAX", "procedure": "as §1"}, "[18]": {"biological_target": "T18, IKK-epsilon (Homo sapiens, UniProt Q14164)", "T18 construct": "purchased Eurofins/DiscoverX KINOMEscan scanMAX", "procedure": "as §1"}, "[19]": {"biological_target": "T19, IRAK1 (Homo sapiens, UniProt P51617)", "T19 construct": "purchased Eurofins/DiscoverX KINOMEscan scanMAX", "procedure": "as §1"}, "[20]": {"biological_target": "T20, ITK (Homo sapiens, UniProt Q08881)", "T20 construct": "purchased Eurofins/DiscoverX KINOMEscan scanMAX", "procedure": "as §1"}, "[21]": {"biological_target": "T21, LTK (Homo sapiens, UniProt P29376)", "T21 construct": "purchased Eurofins/DiscoverX KINOMEscan scanMAX", "procedure": "as §1"}, "[22]": {"biological_target": "T22, MAP4K2 (Homo sapiens, UniProt Q12851)", "T22 construct": "purchased Eurofins/DiscoverX KINOMEscan scanMAX", "procedure": "as §1"}, "[23]": {"biological_target": "T23, MET (Homo sapiens, UniProt P08581)", "T23 construct": "purchased Eurofins/DiscoverX KINOMEscan scanMAX", "procedure": "as §1"}, "[24]": {"biological_target": "T24, MET(Y1235D) (Homo sapiens, UniProt P08581, Y1235D)", "T24 construct": "purchased Eurofins/DiscoverX KINOMEscan scanMAX", "procedure": "as §1"}, "[25]": {"biological_target": "T25, MST4 (Homo sapiens, UniProt Q9P289)", "T25 construct": "purchased Eurofins/DiscoverX KINOMEscan scanMAX", "procedure": "as §1"}, "[26]": {"biological_target": "T26, NEK10 (Homo sapiens, UniProt Q6ZWH5)", "T26 construct": "purchased Eurofins/DiscoverX KINOMEscan scanMAX", "procedure": "as §1"}, "[27]": {"biological_target": "T27, PIK3CA(H1047L) (Homo sapiens, UniProt P42336, H1047L)", "T27 construct": "purchased Eurofins/DiscoverX KINOMEscan scanMAX", "T27 sequence (P42336 whole entry H1047L)": "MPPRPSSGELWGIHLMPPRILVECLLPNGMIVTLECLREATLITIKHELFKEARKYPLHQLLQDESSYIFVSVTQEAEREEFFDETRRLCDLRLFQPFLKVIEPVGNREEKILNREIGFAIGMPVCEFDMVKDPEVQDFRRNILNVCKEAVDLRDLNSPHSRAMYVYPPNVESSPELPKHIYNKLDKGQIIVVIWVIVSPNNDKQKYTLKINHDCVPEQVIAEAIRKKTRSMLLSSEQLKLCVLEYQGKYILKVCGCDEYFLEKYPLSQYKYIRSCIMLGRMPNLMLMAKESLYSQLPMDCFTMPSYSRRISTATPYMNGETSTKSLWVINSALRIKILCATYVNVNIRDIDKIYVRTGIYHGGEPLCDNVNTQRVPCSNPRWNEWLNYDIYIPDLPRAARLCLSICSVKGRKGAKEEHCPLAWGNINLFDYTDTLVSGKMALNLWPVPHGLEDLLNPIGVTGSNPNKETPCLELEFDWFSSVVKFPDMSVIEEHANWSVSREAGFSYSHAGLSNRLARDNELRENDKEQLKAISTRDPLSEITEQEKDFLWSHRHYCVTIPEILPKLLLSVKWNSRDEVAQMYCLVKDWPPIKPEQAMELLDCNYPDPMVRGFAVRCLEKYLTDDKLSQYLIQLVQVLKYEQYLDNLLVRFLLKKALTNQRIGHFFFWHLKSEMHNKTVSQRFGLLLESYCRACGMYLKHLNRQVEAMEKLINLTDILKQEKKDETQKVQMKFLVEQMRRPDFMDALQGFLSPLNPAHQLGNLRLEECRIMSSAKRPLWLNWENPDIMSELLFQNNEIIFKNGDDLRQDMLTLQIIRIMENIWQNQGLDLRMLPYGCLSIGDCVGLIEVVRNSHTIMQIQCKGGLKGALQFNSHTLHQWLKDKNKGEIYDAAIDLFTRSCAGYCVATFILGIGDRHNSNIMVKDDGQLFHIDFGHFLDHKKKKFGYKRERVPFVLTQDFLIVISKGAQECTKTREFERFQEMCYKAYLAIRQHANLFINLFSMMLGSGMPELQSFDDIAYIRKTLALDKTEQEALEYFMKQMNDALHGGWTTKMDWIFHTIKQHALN", "procedure": "as §1"}, "[28]": {"biological_target": "T28, PIK3CA(H1047Y) (Homo sapiens, UniProt P42336, H1047Y)", "T28 construct": "purchased Eurofins/DiscoverX KINOMEscan scanMAX", "T28 sequence (P42336 whole entry H1047Y)": "as the sequence (P42336 whole entry H1047L) above, with L1047Y counted along it", "procedure": "as §1"}, "[29]": {"biological_target": "T29, PIP5K2B (Homo sapiens, UniProt P78356)", "T29 construct": "purchased Eurofins/DiscoverX KINOMEscan scanMAX", "T29 sequence (P78356 whole entry)": "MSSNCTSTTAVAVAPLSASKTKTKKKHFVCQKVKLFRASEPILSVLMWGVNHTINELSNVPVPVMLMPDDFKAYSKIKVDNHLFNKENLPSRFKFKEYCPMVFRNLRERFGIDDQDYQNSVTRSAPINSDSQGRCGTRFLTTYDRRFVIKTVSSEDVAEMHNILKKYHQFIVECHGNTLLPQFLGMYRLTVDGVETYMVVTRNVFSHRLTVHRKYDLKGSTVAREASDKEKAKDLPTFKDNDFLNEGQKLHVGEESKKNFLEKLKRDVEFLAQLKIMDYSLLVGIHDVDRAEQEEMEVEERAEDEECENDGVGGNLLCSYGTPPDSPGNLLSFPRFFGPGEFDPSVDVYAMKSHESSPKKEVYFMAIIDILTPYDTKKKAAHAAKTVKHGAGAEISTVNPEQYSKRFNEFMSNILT", "procedure": "as §1"}, "[30]": {"biological_target": "T30, PKN1 (Homo sapiens, UniProt Q16512)", "T30 construct": "purchased Eurofins/DiscoverX KINOMEscan scanMAX", "procedure": "as §1"}, "[31]": {"biological_target": "T31, PRKCI (Homo sapiens, UniProt P41743)", "T31 construct": "purchased Eurofins/DiscoverX KINOMEscan scanMAX", "T31 sequence (P41743 whole entry)": "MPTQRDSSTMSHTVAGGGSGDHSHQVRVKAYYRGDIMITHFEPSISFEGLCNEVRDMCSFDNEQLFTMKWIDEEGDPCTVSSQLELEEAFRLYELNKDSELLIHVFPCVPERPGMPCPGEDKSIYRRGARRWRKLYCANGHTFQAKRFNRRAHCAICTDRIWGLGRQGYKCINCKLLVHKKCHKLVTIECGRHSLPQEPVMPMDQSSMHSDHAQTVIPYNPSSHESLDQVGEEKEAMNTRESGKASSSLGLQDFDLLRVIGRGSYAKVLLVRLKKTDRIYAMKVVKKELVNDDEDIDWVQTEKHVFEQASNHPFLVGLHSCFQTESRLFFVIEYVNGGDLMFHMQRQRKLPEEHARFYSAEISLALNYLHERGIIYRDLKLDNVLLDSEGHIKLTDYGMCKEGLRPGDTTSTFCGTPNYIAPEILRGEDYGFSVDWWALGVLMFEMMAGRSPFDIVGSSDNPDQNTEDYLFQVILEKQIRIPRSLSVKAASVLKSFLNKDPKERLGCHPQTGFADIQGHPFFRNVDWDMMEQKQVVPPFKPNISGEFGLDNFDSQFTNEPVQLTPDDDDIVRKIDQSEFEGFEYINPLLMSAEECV", "procedure": "as §1"}, "[32]": {"biological_target": "T32, PRKD2 (Homo sapiens, UniProt Q9BZL6)", "T32 construct": "purchased Eurofins/DiscoverX KINOMEscan scanMAX", "procedure": "as §1"}, "[33]": {"biological_target": "T33, RPS6KA4(Kin.Dom.1-N-terminal) (Homo sapiens, UniProt O75676)", "T33 construct": "RPS6KA4(Kin.Dom.1-N-terminal); purchased Eurofins/DiscoverX KINOMEscan scanMAX", "procedure": "as §1"}, "[34]": {"biological_target": "T34, RSK3(Kin.Dom.1-N-terminal) (Homo sapiens, UniProt Q15349)", "T34 construct": "RSK3(Kin.Dom.1-N-terminal); purchased Eurofins/DiscoverX KINOMEscan scanMAX", "T34 sequence (Q15349 59-388 limits assumed)": "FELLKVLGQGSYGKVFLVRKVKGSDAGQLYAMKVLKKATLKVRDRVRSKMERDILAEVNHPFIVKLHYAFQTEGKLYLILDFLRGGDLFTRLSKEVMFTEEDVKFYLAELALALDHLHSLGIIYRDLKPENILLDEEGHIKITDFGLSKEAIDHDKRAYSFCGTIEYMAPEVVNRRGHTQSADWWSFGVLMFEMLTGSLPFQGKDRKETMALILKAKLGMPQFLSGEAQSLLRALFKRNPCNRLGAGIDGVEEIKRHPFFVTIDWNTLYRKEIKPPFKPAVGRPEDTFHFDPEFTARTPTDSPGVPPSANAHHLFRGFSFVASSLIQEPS", "procedure": "as §1"}, "[35]": {"biological_target": "T35, SRPK3 (Homo sapiens, UniProt Q9UPE1)", "T35 construct": "purchased Eurofins/DiscoverX KINOMEscan scanMAX", "procedure": "as §1"}, "[36]": {"biological_target": "T36, SYK (Homo sapiens, UniProt P43405)", "T36 construct": "purchased Eurofins/DiscoverX KINOMEscan scanMAX", "procedure": "as §1"}, "[37]": {"biological_target": "T37, TIE1 (Homo sapiens, UniProt P35590)", "T37 construct": "purchased Eurofins/DiscoverX KINOMEscan scanMAX", "procedure": "as §1"}, "[38]": {"biological_target": "T38, TLK2 (Homo sapiens, UniProt Q86UE8)", "T38 construct": "purchased Eurofins/DiscoverX KINOMEscan scanMAX", "T38 sequence (Q86UE8 whole entry)": "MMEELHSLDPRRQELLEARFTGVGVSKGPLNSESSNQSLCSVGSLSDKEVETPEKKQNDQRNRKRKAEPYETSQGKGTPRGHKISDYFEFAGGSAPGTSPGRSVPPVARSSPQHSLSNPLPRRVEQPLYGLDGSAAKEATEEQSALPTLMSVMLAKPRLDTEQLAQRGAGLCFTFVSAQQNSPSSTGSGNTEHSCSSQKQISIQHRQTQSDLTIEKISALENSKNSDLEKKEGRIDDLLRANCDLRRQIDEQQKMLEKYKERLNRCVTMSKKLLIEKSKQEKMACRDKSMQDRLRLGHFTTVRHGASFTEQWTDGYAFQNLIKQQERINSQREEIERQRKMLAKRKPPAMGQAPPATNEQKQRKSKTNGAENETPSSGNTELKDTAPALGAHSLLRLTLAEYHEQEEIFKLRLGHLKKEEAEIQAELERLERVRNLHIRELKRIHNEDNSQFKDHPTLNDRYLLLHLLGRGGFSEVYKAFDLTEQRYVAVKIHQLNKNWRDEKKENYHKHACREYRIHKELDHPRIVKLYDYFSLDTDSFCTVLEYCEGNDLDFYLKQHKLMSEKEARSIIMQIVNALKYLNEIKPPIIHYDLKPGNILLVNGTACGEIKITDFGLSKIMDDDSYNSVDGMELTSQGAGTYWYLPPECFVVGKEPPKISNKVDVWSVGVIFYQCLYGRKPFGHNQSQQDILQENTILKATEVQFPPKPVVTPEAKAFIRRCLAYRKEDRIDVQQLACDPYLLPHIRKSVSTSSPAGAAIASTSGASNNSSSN", "procedure": "as §1"}, "[39]": {"biological_target": "T39, TNK2 (Homo sapiens, UniProt Q07912)", "T39 construct": "purchased Eurofins/DiscoverX KINOMEscan scanMAX", "procedure": "as §1"}, "[40]": {"biological_target": "T40, TSSK1B (Homo sapiens, UniProt Q9BXA7)", "T40 construct": "DNA tag (qPCR barcode); purchased Eurofins/DiscoverX KINOMEscan scanMAX", "procedure": "as §1"}, "[41]": {"biological_target": "T41, ULK3 (Homo sapiens, UniProt Q6PHR2)", "T41 construct": "DNA tag (qPCR barcode); purchased Eurofins/DiscoverX KINOMEscan scanMAX", "procedure": "as §1"}}, "data": [{"compound": "CN1CCN(C2CCC(n3cc(-c4ccc(Oc5ccccc5)cc4)c4c(N)ncnc43)CC2)CC1", "note": "(centres unmarked) [A-419259]", "values": [{"measurement": "% Control", "setting": "[1]", "result": 100, "unit": "%"}, {"measurement": "% Control", "setting": "[2]", "result": 0, "unit": "%"}, {"measurement": "% Control", "setting": "[3]", "result": 41, "unit": "%"}, {"measurement": "% Control", "setting": "[4]", "result": 100, "unit": "%"}, {"measurement": "% Control", "setting": "[5]", "result": 100, "unit": "%"}, {"measurement": "% Control", "setting": "[6]", "result": 79, "unit": "%"}, {"measurement": "% Control", "setting": "[7]", "result": 0.2, "unit": "%"}, {"measurement": "% Control", "setting": "[8]", "result": 100, "unit": "%"}, {"measurement": "% Control", "setting": "[9]", "result": 100, "unit": "%"}, {"measurement": "% Control", "setting": "[10]", "result": 100, "unit": "%"}, {"measurement": "% Control", "setting": "[11]", "result": 40, "unit": "%"}, {"measurement": "% Control", "setting": "[12]", "result": 59, "unit": "%"}, {"measurement": "% Control", "setting": "[13]", "result": 94, "unit": "%"}, {"measurement": "% Control", "setting": "[14]", "result": 82, "unit": "%"}, {"measurement": "% Control", "setting": "[15]", "result": 72, "unit": "%"}, {"measurement": "% Control", "setting": "[16]", "result": 97, "unit": "%"}, {"measurement": "% Control", "setting": "[17]", "result": 80, "unit": "%"}, {"measurement": "% Control", "setting": "[18]", "result": 100, "unit": "%"}, {"measurement": "% Control", "setting": "[19]", "result": 98, "unit": "%"}, {"measurement": "% Control", "setting": "[20]", "result": 14, "unit": "%"}, {"measurement": "% Control", "setting": "[21]", "result": 36, "unit": "%"}, {"measurement": "% Control", "setting": "[22]", "result": 98, "unit": "%"}, {"measurement": "% Control", "setting": "[23]", "result": 58, "unit": "%"}, {"measurement": "% Control", "setting": "[24]", "result": 100, "unit": "%"}, {"measurement": "% Control", "setting": "[25]", "result": 4.9, "unit": "%"}, {"measurement": "% Control", "setting": "[26]", "result": 100, "unit": "%"}, {"measurement": "% Control", "setting": "[27]", "result": 98, "unit": "%"}, {"measurement": "% Control", "setting": "[28]", "result": 99, "unit": "%"}, {"measurement": "% Control", "setting": "[29]", "result": 94, "unit": "%"}, {"measurement": "% Control", "setting": "[30]", "result": 88, "unit": "%"}, {"measurement": "% Control", "setting": "[31]", "result": 26, "unit": "%"}, {"measurement": "% Control", "setting": "[32]", "result": 63, "unit": "%"}, {"measurement": "% Control", "setting": "[33]", "result": 66, "unit": "%"}, {"measurement": "% Control", "setting": "[34]", "result": 22, "unit": "%"}, {"measurement": "% Control", "setting": "[35]", "result": 99, "unit": "%"}, {"measurement": "% Control", "setting": "[36]", "result": 100, "unit": "%"}, {"measurement": "% Control", "setting": "[37]", "result": 25, "unit": "%"}, {"measurement": "% Control", "setting": "[38]", "result": 100, "unit": "%"}, {"measurement": "% Control", "setting": "[39]", "result": 1.1, "unit": "%"}, {"measurement": "% Control", "setting": "[40]", "result": 100, "unit": "%"}, {"measurement": "% Control", "setting": "[41]", "result": 84, "unit": "%"}]}]}
